Laboratory results reported in patent US20070254055A1, “Therapeutic Avenanthramide Compounds” (TRUSTEES OF TUFTS COLLEGE, priority 2003, published 2007).

Columns and labels:
eNOS mRNA = eNOS mRNA expression level by real time PCR; type: cell-based, human
Procedure: Since NO is catalyzed by endothelium nitric oxide synthases (eNOS), the role of Avenanthramide in induction of eNOS expression level by real time PCR was examined. Total mRNA was extracted using RNesy Mini Kit (QIAGEN) and quantified spectrophotometrically at 260 nm. Twenty μl of first-strand cDNA was synthesized from 1.5 μg of total RNA by using 300 ng of random hexanucleotide primers and 200u of SuperScript II (Invitrogen) at 42 C. for 1 h followed by heat inactivation of reverse transcriptase at 70 C. for 15 min. Fifty μL of PCR reaction mixture contained 5 μL cDNA, up- and down-stream primers (200 nM) and 25 μL of SYBR Green was set up into the ABI 4400 to perform the amplification for 40 cycles with denaturation at 95 C. for 30 sec, annealing at 60 C. for 1 min and extension at 72 C. for 1 min. Primers designed based on the published gene sequences were synthesized from Tufts University Core Facility. The primer sequences used for eNOS were:
Beta-actin mRNA expression level as an internal control. […] The enhancing effect is dose-dependent and the pattern is consistent with the results from NO production (FIG. 3).

[1] = test system: human aortic smooth muscle cells (HSMC); test: Cell number counting, HSMC; type: cell-based; settings: 120 μM
Procedure: HSMC or A10 cells (rat embryonic aortic smooth muscle cell) were seeded into 6-well plate at a density of 0.5×10^4/well. Four hr later 120 μM of avenanthramide were added to each well. At different time points (2d, 3d and 4d) the cells were trypsinzied and the total cell number were counted using a hemocytometer. Trypan blue exclusion test was carried out to determine the cell viability.

p53 = p53 protein level Western blot, A10 cells; type: cell-based, rat
Procedure: (§1) Protein from 5×10^4 cells was subjected to electrophoresis on 7.5-10% SDS-polyacrylamide gels and electro-transferred to nirocellulose membrane. Nonspecific binding was blocked by incubating with Tris-buffered saline (TBS) [137 mM NaCl, and 15 mM Tris-HCl (pH 7.6)] containing 5% non-fat milk (w/v) for 1 h at room temperature and then probed with primary antibody against p53, p21, p27, cyclin D1 and pRb overnight. After washing in TBS-Tween 20 buffer (0.075% v/v), the membranes were incubated with horseradish peroxidase-conjugated anti-IgG antibody. Proteins bound to the primary antibodies were detected with ECL detection reagents.
Induction of the tumor suppressor p53 has been implicated in the control of cell growth of SMC, and some antioxidants in green tea or red wine can increase the p53 protein expression level. Therefore, the effect of substantially purified Avn-C treatment on p53 protein levels was explored. A10 cells were seeded into 100 mm Petri dishes and grown in 10% FBS culture medium until 70% confluence. Cells were either left untreated or treated with different concentrations of Avn (0-120 uM), and the cells were harvested after 24 h. Whole cell lysates were prepared and subjected to Western blot analysis for p53 and β-actin levels.

p21cip1 = p21cip1 expression Western blot, A10 cells; type: cell-based, rat; settings: 10% FBS, 20 h, highest level at 120 μM
Procedure: as §1
Cyclin-dependent kinase (cdk) inhibitors play important roles in cell cycle progression. P21cip1 is the main target of p53 medicated cell cycle inhibition. […] The effect of Avn on this CDK inhibitor p21cip1 protein expression was determined by Western blotting. A10 cells were synchronized by growning in FBS-free medium for 24 h. The cells were then stimulated with 10% FBS in the absence or presence of different concentrations of substantially purified Avn-C. After 20 h, total cell lysates were prepared and subjected to SDS-PAGE followed by Western blot analysis to detect p21cip and p27kip. β-Actin expression was used as loading control. […]

NO production of HAEC = test: NO production, DAF-2 fluorescence assay, HAEC; type: cell-based, human; settings: 120 μM, 24 h
From the text: In addition to its vasodilating feature, NO has antiatherosclerotic properties, such as prevention of platelet aggregation, leukocyte adhesion, smooth muscle cell proliferation, and the expression of genes involved in atherogenesis. In this study, the human aortic smooth muscle cells (HSMC) and human aortic endothelia cells (HEC) were used to determine if avenanthramides can influence the NO production level. Synthetic Av-C was used in this experiment. The quantification of NO production was performed by the 4,5 diaminofluorescein (DAF-2) fluorescence assay. Briefly, cells were seeded into 24-well plate and let them grow to 90% confluent condition. The cells were pretreated with different concentrations of Avenanthramide for 24 h. The culture medium was then changed to PBS containing 100 μM L-arginine, 1 μM bradykinin and L-NAME. Then 0.1 μM of DAF-2 was added to each well. After another 2 h of incubation, 200 μL of supernatants were transferred to black microplates and the fluorescence was measured with a fluorescence microplate reader calibrated for excitation at 485 nm and emission at 538 nm.

U937 cells = test: Hydrogen peroxide-induced ROS production in U937 cells (DCHF); type: cell-based, human; settings: 18 h pretreatment
Procedure: Pretreatment of H2O2-stimulated U937 cells with 1, 5, and 10 μM of Avn reduced the ROS production by 22, 50, and 76%, respectively, indicating the inhibitory effect is dose-dependent.

pRb = pRb phosphorylation Western blot, FBS-stimulated A10 cells; type: cell-based, rat; settings: 10% FBS, 20 h
Procedure: as §1
Based on the above findings that treatment of A10 cells with Avn arrests the cell cycle at G1 phase, the effect of Avn treatment on cell cycle regulatory molecules involved in G1 phase of the cell cycle progression were analyzed. pRB, the product of the retinoblastoma tumor suppressor gene, is a major cell cycle regulator and its hyperphosphorylation (ppRb) is necessary for G1-S phase transition. To elucidate the mechanism by which Avn inhibits the cell cycle progression, the changes in pRB phosphorylation status were measured using anti-phospho-pRb specific antibody. FIG. 11 is a Western blot showing the effects of Avn on pRB phosphorylation. Av inhibits pRb phosphorylation in A10 cells stimulated with FBS. […]

O=C(/C=C/c1ccc(O)c(O)c1)Nc1ccc(O)cc1C(=O)O [Avn-C, Avenanthramide C]
increase of eNOS mRNA expression level (eNOS mRNA; 80 μM, HASMC): 3.5 fold | Fold Change, eNOS mRNA expression level (eNOS mRNA; Av. Con. 40 μM): 1.56 | ΔCt eNOS-β-actin (eNOS mRNA; Av. Con. 40 μM): 7.0 ± 0.51 | Fold Change, eNOS mRNA expression level (eNOS mRNA; Av. Con. 80 μM): 2.39 | ΔCt eNOS-β-actin (eNOS mRNA; Av. Con. 80 μM): 6.41 ± 0.48 | inhibition of cell growth ([1]; 4 days): more than 50% | doubling time ([1]; HSMC): more than 48 hr | increase of p53 protein level (p53): up to 3 fold | p53 protein levels (p53; 0-120 uM, 24 h): dose-dependent increase | p21 expression level (p21cip1): increased significantly | increase in NO production compared with control (NO production of HAEC): 8.8 folds | reduction of H2O2-induced ROS production (U937 cells; 1 μM): 22% | reduction of H2O2-induced ROS production (U937 cells; 5 μM): 50% | reduction of H2O2-induced ROS production (U937 cells; 10 μM): 76% | expression of the total amount of pRb (pRb): did not change | serum-induced pRB phosphorylation (pRb; different concentrations): dose-dependently inhibited
